# Literature values in publication PMC9916685, “Discovery of Small Molecule COX-1 and Akt Inhibitors as Anti-NSCLC Agents Endowed with Anti-Inflammatory Action” (International Journal of Molecular Sciences, 2023).
# System: Akt
# Parameters: method as in doi:10.2174/1570180817999200618163507
# Conditions: 5RP7 H-ras oncogene transformed rat embryonic fibroblast cell line; cited from earlier work
compound,measurement,value
COc1ccc(-c2ccnc(SCC(=O)NN=Cc3ccccc3)n2)cc1 [N′-benzylidene-2-[(4-(4-methoxyphenyl)pyrimidin-2-yl)thio]acetohydrazide],inhibition of Akt IC50,0.50 µg/mL
